The target in this test is T1, TAK1 (Homo sapiens, UniProt O43318).
T1 sequence (O43318 1-606): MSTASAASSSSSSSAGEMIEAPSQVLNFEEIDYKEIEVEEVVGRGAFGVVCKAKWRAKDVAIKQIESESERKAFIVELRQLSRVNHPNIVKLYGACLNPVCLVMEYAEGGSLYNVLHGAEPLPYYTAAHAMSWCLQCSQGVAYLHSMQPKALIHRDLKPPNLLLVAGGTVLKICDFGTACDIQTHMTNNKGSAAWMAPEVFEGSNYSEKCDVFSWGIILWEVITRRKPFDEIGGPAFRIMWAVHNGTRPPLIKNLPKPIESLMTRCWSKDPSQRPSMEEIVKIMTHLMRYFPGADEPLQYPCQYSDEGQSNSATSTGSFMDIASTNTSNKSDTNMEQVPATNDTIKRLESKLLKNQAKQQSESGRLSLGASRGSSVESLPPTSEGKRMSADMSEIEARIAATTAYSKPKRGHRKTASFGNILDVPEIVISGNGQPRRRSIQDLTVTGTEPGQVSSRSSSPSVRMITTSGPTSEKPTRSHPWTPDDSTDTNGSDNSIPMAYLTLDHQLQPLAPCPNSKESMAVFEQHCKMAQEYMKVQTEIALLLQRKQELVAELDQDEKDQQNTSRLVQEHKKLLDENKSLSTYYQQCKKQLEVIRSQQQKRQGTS
T1 sequence (Q15750 1-504 partner): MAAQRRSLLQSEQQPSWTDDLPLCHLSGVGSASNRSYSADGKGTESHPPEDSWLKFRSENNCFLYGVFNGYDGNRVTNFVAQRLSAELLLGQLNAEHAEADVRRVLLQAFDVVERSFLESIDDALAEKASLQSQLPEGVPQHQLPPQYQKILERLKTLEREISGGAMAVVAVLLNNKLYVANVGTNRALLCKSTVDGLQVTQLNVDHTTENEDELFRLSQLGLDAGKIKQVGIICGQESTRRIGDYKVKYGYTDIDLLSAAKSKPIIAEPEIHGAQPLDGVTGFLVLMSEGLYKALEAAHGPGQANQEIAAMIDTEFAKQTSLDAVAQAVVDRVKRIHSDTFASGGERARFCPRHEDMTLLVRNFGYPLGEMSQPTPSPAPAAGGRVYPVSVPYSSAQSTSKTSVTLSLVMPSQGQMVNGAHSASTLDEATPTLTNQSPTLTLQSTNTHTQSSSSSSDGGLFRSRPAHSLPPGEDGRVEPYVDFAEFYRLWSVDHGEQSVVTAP
As to the kind of experiment: TAK1 enzyme inhibition. Format: biochemical.

SMILES strings stand for the structures.

Consider `COC(C)(C)CNCc1ccc(-c2cc(NC(N)=O)c(C(N)=O)s2)cc1` [Compound 4, 3-[(aminocarbonyl)amino]-5-(4-{[(2-methoxy-2-methylpropyl)amino]methyl}phenyl)thiophene-2-carboxamide], for which, for the setting “Table 4, read-out: TAK1 pIC50 (enzyme) (converted)”, the IC50 is 63.1 nM. Moreover, the “TAK1 pIC50” value (Table 5) is reported as 7.2.

These data come from patent US20090312396A1, “METHODS FOR CANCER TREATMENT USING TAK1 INHIBITORS” (AstraZeneca AB, priority 2006, published 2009).
